Assays:
[1] = test system: DHDP synthase activity in the leaves of 327; experiment: DHDP synthase activity (o-aminobenzaldehyde assay) in leaf extracts of 327; format: biochemical, Nicotiana tabacum SR1 (E. coli dap A gene); settings: 327 leaf extract
Method: (§1) Young leaves of 327 and seed-grown NT-SR1 plants were extracted as follows. One to two grams of deribbed leaves were ground at 4° C. in 2 ml extraction buffer (0.1M potassium phosphate (pH 7.5 at 4° C.), 2 mM EDTA, 1 mM β-mercaptoethanol, 10 mM sodium pyruvate) in the presence of 0.14 gm polyvinylpyrrolidone per gram of tissue. The extract was filtered through Miracloth (Calbiochem) and then centrifuged for 10 minutes at 8000×g (4° C.). The supernatant was slowly brought to 40% saturation by adding finely ground solid ammonium sulfate at 4° C. with gentle stirring. The precipitate was removed by centrifugation. The supernatant was brought to 66% ammonium sulfate saturation and the 40-66% precipitate was collected by centrifugation as before. The pellet was resuspended in column buffer (50 mM Tris-HCl (pH 7.5 at 4° C.), 1 mM EDTA, 10 mM sodium pyruvate, 10% glycerol) and passed through a Sephadex G-25 column (Sigma) to desalt.
(§2) Protein concentrations were determined by the dye-binding method of Bradford (REF) using bovine serum albumin fraction V powder in distilled water as the standard.
(§3) Dihydrodipicolinic acid synthase activity was monitored using the o-aminobenzaldehyde (ABA) assay (Yugari et al., J. Biol. Chem., 240, 4710-4716 (1965)). […] The pink color was allowed to develop for one hour at 25° C. and then the optical density was measured at 520 nm.

[2] = molecular target: T1, DHDP synthase activity in NT-SR1 leaves (Nicotiana tabacum, UniProt Q42948); experiment: DHDP synthase activity (o-aminobenzaldehyde assay) in leaf extracts of seed-grown NT-SR1; format: biochemical; settings: NT-SR1 leaf extract
T1 construct: Young leaves of 327 and seed-grown NT-SR1 plants were extracted as follows; from tissue; host or cells: young leaves of seed-grown NT-SR1 plants, 40-66% ammonium sulfate fraction of the leaf extract
T1 sequence (Q42948 34-359): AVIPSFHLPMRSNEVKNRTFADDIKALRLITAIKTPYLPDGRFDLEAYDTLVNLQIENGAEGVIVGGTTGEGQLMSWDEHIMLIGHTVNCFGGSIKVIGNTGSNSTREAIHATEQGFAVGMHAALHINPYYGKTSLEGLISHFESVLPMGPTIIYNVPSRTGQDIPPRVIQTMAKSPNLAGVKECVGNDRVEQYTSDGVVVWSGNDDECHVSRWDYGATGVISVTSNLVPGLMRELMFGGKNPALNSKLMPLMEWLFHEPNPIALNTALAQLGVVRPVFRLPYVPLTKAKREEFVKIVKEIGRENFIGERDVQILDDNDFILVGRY
Method: as §1, §2, §3

[3] = test system: Dihydrodipicolinic acid synthase; settings: in vitro; cited from earlier work
[4] = test system: leaf disks from plant 327; experiment: Leaf disk AEC screen, dap A+ plant 327; format: cell-based, Nicotiana tabacum SR1
Method: (§4) Plant tissue was initially screened for expression of the introduced dap A gene by evaluating resistance to the lysine analog S(2-aminoethyl)cysteine(AEC). AEC is a potent inhibitor of dihydrodipicolinic acid synthase of plants, but the bacterial DHDPS is much less sensitive to it. Leaf disks were prepared from surface-sterilized leaves as described in the transformation protocol. The disks were placed, (four disks per plate, two plates per treatment) on shooting medium supplemented with 1 mM L-arginine and AEC at 0, 0.1, 0.2 or 0.4 mM. Plates containing shooting medium supplemented with 75 μg/ml kanamycin were included for each plant tested to check the selectable marker. After one week at 26° C. in the light, the individual leaf disks were weighed and the average fresh weight and standard deviation were determined for each treatment.

[5] = test system: leaf disks from water control plant 101; experiment: Leaf disk AEC screen, water control plant 101; format: cell-based, Nicotiana tabacum SR1
Method: as §4

[6] = test system: seedlings of self-pollinated 327; experiment: AEC resistance in seedlings, progeny of 327; format: in vivo, Nicotiana tabacum SR1; settings: Nicotiana tabacum, 336 h, two weeks postplating, read-out: Avg. Root Length
Method: (§5) Tobacco plant 327 flowered and was allowed to self-pollinate and produce seed. Mature, dry seed was collected, surface-sterilized with 10% bleach, and rinsed well with sterile water. Seeds were plated (50 seeds per plate, two plates per treatment) on gridded germination plates (1/4 MS salts, 2.5 gm/l Gelrite) containing AEC at 0, 1, 10, 30, 100 and 300 μM AEC. Seeds from self-pollinated 101 were treated identically as controls. All seeds germinated in 3-4 days. After 10 days, the number of green seedlings on each plate was counted. After two weeks, the seedlings were gently pulled from the Gelrite and root lengths were measured.

[7] = test system: seedlings of self-pollinated 101; experiment: AEC resistance in seedlings, progeny of 101; format: in vivo, Nicotiana tabacum SR1; settings: Nicotiana tabacum, 336 h, two weeks postplating, read-out: Avg. Root Length
Method: as §5

## NCCCC[C@H](N)C(=O)O [L-lysine]
[1]; 100 μM L-lysine
  Inhibition of DHDP synthase activity: completely resistant
[1]; 500 μM L-lysine
  Inhibition of DHDP synthase activity: 14%
[2]; 100 μM L-lysine
  inhibition at 100 µM: 87%
[2]; 500 μM L-lysine
  Inhibition of DHDP synthase activity: no activity could be detected
[3]
  Lower sensitivity of E. coli DHDPS to inhibition by lysine compared to the same enzyme from plants: at least 200 fold

## NCCSCC(N)C(=O)O (stereo not drawn) [AEC, S(2-aminoethyl)cysteine]
[4]; Nicotiana tabacum, foliar, 168 h, AEC 0.1 mM, plant 327 leaf disks, after one week, read-out: Fresh Weight
  activity at 100 µM: 88%
[4]; Nicotiana tabacum, foliar, 168 h, AEC 0.2 mM, plant 327 leaf disks, after one week, read-out: Fresh Weight
  activity at 200 µM: 81%
[4]; Nicotiana tabacum, foliar, 168 h, AEC 0.4 mM, plant 327 leaf disks, after one week, read-out: Fresh Weight
  activity at 400 µM: 71%
[4]; putative dap A+ plants
  Leaf disk growth in the presence of AEC: remain green and growing
[5]; Nicotiana tabacum, foliar, 168 h, AEC 0.1 mM, plant 101 leaf disks, after one week, read-out: Fresh Weight
  activity at 100 µM: 32%
[5]; Nicotiana tabacum, foliar, 168 h, AEC 0.2 mM, plant 101 leaf disks, after one week, read-out: Fresh Weight
  activity at 200 µM: 15%
[5]; Nicotiana tabacum, foliar, 168 h, AEC 0.4 mM, plant 101 leaf disks, after one week, read-out: Fresh Weight
  activity at 400 µM: 10%
[5]; control plants
  Leaf disk growth in the presence of AEC: strongly inhibited
[5]; control plants, medium containing at least 0.2 mM AEC
  Leaf disk appearance: brown and shriveled
[6]; AEC 1 μM
  activity at 1 µM: 111%
[6]; AEC 3 μM
  activity at 3 µM: 87%
[6]; AEC 10 μM
  activity at 10 µM: 51%
[6]; AEC 30 μM
  activity at 30 µM: 46%
[6]; AEC 100 μM
  activity at 100 µM: 21%
[7]; AEC 1 μM
  activity at 1 µM: 46%
[7]; AEC 3 μM
  activity at 3 µM: 33%
[7]; AEC 10 μM
  activity at 10 µM: 27%
[7]; AEC 30 μM
  activity at 30 µM: 18%
[7]; AEC 100 μM
  activity at 100 µM: 0%

Reference: patent publication US5258300A, “Method of inducing lysine overproduction in plants” (Molecular Genetics Research and Development Limited …, priority 1988, dated 1993)
